Experimental data from patent publication US20110021572A1, “FUNGICIDE HYDROXIMOYL-TETRAZOLE DERIVATIVES” (priority 2008, published 2011).
Where two headings read alike, the source gives them in different places.

Columns and labels:
Phytophthora infestans = assay type: in vivo; details: tomato plants, preventive, 500 ppm of active ingredient, evaluated 7 days after inoculation
Plasmopara viticola = assay: Plasmopara test (grapevines)/protective; assay type: in vivo; details: protective, 100 ppm of active ingredient, evaluated 6 days after inoculation
Procedure: To test for protective activity, young plants are sprayed with the preparation of active compound at the stated rate of application. After the spray coating has dried on, the plants are inoculated with an aqueous spore suspension of Plasmopara viticola and then remain for 1 day in an incubation cabinet at approximately 20° C. and a relative atmospheric humidity of 100%. The plant is subsequently placed for 4 days in a greenhouse at approximately 21° C. and a relative atmospheric humidity of approximately 90%. The plants are then misted and placed for 1 day in an incubation cabinet.

[1] = Measurement of logP values by HPLC on reversed phase columns (EEC directive 79/831 Annex V.A8); assay type: physicochemical

Structure (SMILES) | efficacy (Phytophthora infestans) | efficacy (Plasmopara viticola) | chromatographic logP ([1]; HPLC, pH 2.7, 0.1% formic acid, reported in preparation examples, read-out: logP(HCOOH)) | chromatographic logP ([1]; pH 2.7)
CCCCCOC(=O)Nc1cccnc1CON=C(c1ccccc1)c1nnnn1C [Example 2, pentyl {2-[({[(1-methyl-1H-tetrazol-5-yl)(phenyl)methylene]amino}oxy)methyl]pyridin-3-yl}carbamate] | ≥ 70% | ≥ 70% | 3.53 | –
Cn1nnnc1C(=NOCc1ncccc1N)c1ccccc1 [Example 14, 2-[({[(1-methyl-1H-tetrazol-5-yl)(phenyl)methylene]amino}oxy)methyl]pyridin-3-amine] | – | – | – | 1.01
Cn1nnnc1C(=NOCc1ncccc1N1C(=O)c2ccccc2C1=O)c1ccccc1 [Example 13, 2-{2-[({[(1-methyl-1H-tetrazol-5-yl)(phenyl)methylene]amino}oxy)methyl]pyridin-3-yl}-1H-isoindole-1,3(2H)-dione] | – | – | – | 2.63
